Measurements as given in patent US20210162078A1, “METHOD FOR DIAGNOSIS OF DO[…] MOVEMENT DISORDERS” (LikeMinds, Inc., priority 2018, published 2021).
Read-outs that look alike come from different tables or passages of the source.

Assays:
[1] = target: T1, DAT (Homo sapiens, UniProt Q01959); assay: Binding selectivity of DaT2020 for DAT over SERT
Target sequence in this assay (Q01959 whole entry, species assumed): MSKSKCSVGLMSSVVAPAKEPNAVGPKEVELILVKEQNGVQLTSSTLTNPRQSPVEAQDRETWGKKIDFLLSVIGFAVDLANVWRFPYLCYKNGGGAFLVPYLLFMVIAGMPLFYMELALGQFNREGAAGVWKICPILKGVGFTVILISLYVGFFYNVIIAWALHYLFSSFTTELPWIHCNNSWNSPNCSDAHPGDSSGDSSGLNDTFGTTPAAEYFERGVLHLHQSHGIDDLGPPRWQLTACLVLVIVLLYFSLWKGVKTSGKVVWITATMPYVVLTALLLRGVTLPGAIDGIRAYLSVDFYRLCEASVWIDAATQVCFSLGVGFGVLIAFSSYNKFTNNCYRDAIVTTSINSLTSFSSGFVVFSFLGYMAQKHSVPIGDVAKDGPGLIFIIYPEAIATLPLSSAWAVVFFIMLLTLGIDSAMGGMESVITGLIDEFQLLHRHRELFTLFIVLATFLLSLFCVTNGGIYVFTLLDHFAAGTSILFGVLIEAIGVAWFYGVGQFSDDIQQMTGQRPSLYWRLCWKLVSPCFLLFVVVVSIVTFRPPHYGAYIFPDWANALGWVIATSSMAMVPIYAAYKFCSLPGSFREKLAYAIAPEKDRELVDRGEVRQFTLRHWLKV

[2] = target: T2, DAT in the striatum (Homo sapiens, UniProt Q01959); assay: DaT2020 SPECT study: striatal binding ratio over time after IV injection; assay type: in vivo; details: for specific binding ratio reached, as % of average stable binding ratio: within six min after injection
T2 construct: from tissue; host or cells: striatum of living subjects (in vivo SPECT)
Procedure: The results obtained from administering lower doses of radiolabeled_DaT2020 (5.3 mCi) were modeled from the data obtained using the 8 mCi dose and a 3-headed camera. Within six min after injection of radiolabeled DaT2020, the specific binding ratios of Parkinson's patients and the healthy volunteer group had reached 90% and 74% of the average stable binding ratio of 1.32 and 1.64, respectively, during the previously determined imaging time of 15 min to 45 min post-administration. In contrast, DaTscan takes least 180 min to reach a stable binding ratio.
The subjects used in the study were healthy volunteers (HV) and those with at least mild Parkinson's disease (PD) (Seibyl at al. (2008) “ALTROPANE SPECT in Parkinson's disease patients and healthy controls” (poster). Abs. Movement Dis. Soc. 12th Internat. Con. Parkinson's Disease and Movement Disorders). All subjects were evaluated by a clinician using validated measures to determine if there is evidence of a movement disorder. Any subject using an anti-parkinsonian medication abstained from its use for at least 12 hr prior to the movement disorder evaluation. […]
ROIs were determined using data obtained from about 24 min to 30 min after dose administration, with individual subject ROI sampling of the left and right caudate and putamen and an occipital background region. […]
To determine the striatal binding ratios (SBR) extract total counts within the ROI, total volume, and count density (counts/voxel) from each scan. SBR is calculated as the density of counts (counts per voxel per min) in the striatal region minus the counts in the occipital cortex (background) divided by the density of counts in the occipital background region. The mean striatal SBR scores are calculated as the mean of the left and right caudate and putamen SBR scores.
DaT2020 SBR data over time were abstracted by reading the graphics showing SBR over time for PD patients (Seibyl and Merck, ibid., Appendix 1) (the first scan of two was read), and in Appendix 2 for healthy volunteers (Seibyl and Merck, ibid., Appendix 2).

[3] = Clinical safety and radiation dose of radiolabeled DaT2020 bolus injection; assay type: in vivo, human
Procedure: Such buffers include, but are not limited to, ethanol (solvent), sodium hydroxide and acetic acid (pH adjustment), sodium chloride injection (isotonic vehicle). The formulation to be administered as a bolus injection has been shown in sponsored clinical trials to be safe containing a dose of up to about 8 mCi to 10 mCi of radiolabeled DaT2020 and delivered in a total volume of about 2.5 mL to about 5 mL.
The radioactivity of the dose of radiolabeled DaT2020 or of its radiolabeled derivatives, can be determined one with skill in the art, e.g. by a nuclear medicine imaging technician. In addition, the total radioactivity of the actual administered dose is of relevance and not the volume administered to achieve this dose. The exact radioactive dose of the tracer administered is determined by calculating the difference between the radioactivity in the syringe and delivery system before and after injection. After the dose is delivered, the syringe is filled with a volume of saline equal to the administered dose volume. The syringe content is recounted under the same conditions as used to determine the dose; separately. […]

[4] = target: T2, DAT in the striatum; details: imaging time 15 min to 45 min post-administration, cited from earlier work
[5] = target: T1, DAT; details: DAT sites per one SERT site; package insert; cited from earlier work
Target sequence in this assay (Q01959 whole entry, species assumed): as above

[6] = target: T2, DAT in the striatum; details: cited from earlier work; for time after injection to stable binding to striatal DAT: DaTscan, IV injection, SPECT
[7] = target: T1, DAT; design: host or cells: brain tissue in vivo; details: after binding to transporters other than DAT; package insert; cited from earlier work
Target sequence in this assay (Q01959 whole entry): as the sequence (Q01959 whole entry, species assumed) above

T2 sequence (Q01959 whole entry): as the sequence (Q01959 whole entry, species assumed) above

COC(=O)[C@H]1[C@@H](c2ccc(F)cc2)C[C@@H]2CC[C@H]1N2C/C=C/I [DaT2020, E-2β-carbomethoxy-3β-(4-fluorophenyl)-N-(3-iodo-E-allyl) nortropane]
binding selectivity for DAT over SERT [1]: 28 fold
specific binding ratio reached, as % of average stable binding ratio ([2]; Parkinson's patients): 90%
specific binding ratio reached, as % of average stable binding ratio ([2]; healthy volunteer group): 74%
time after administration at which stable binding to DAT occurs ([2]; radiolabeled DaT2020, IV injection, SPECT): 15 min
safety of bolus injection in sponsored clinical trials ([3]; dose of up to about 8 mCi to 10 mCi, total volume about 2.5 mL to about 5 mL): safe
effective dose ([3]; for 5 mCi of radiolabeled DaT2020): approximately 4.3 mSv
average stable binding ratio (SBR) ([4]; Parkinson's patients): 1.32
average stable binding ratio (SBR) ([4]; healthy volunteer group): 1.64

COC(=O)[C@H]1[C@@H](c2ccc(I)cc2)C[C@@H]2CC[C@H]1N2CCCF [DaTscan, N-ω-fluoropropyl-2β-carbomethoxy-3β-(4-iodophenyl) nortropane]
DAT sites bound for every one SERT site [5]: two to three
time after injection to stable binding to striatal DAT [6]: 3 h
time after injection to stable binding to striatal DAT ([6]; listed as [^123I]-FP-CIT): 3 h
time for which binding remains stable ([6]; after reaching stable binding 3 hr post-injection): 3 h
DaTscan available for DAT transporter binding in the brain tissue [7]: about 7%
